From USRE37781E1, “Substituted cyclic carbonyls and derivatives thereof useful as retroviral protease inhibitors” (DuPont Pharmaceuticals Company, priority 1991, dated 2002)

Each compound was assayed against single-chain tethered dimer of HIV protease (Human immunodeficiency virus 1, UniProt P04585) (assay: biochemical). Conditions: HIV protease inhibition, HPLC method; Table 2d; read-out: HPLC K1.
Format: biochemical
Parameters: fused on or other part: A second copy of the same protease unit is joined to the first by a short peptide tether, giving one polypeptide
Procedure: HIV Protease Inhibition Assay—HPLC Method
Active protease was prepared as described therein by extraction with 67% acetic acid, dilution 33-fold with water, dialysis against water and then against a “refolding buffer” consisting of 20 mM MES, 1 mM dithiothreitol and 10% glycerol. Protease was stored as a stock preparation at 10 uM in refolding buffer.
Substrate: Peptide of sequence: aminobenzoyl-Ala-Thr-His-Gln-Val-Tyr-Phe(NO2)-Val-Arg-Lys-Ala containing p-nitrophenylalanine, was prepared by solid phase synthesis as previously described Cheng et al., op.cit. Stock solutions of 2 mM substrate were prepared in DMSO.
Inhibitory compounds were dissolved in sufficient DMSO to make 3 mM stock solutions. All further dilutions were prepared in “assay buffer”: 1M NaCl, 50 mM MES, pH 5.5, 1 mM EDTA, 1 mM DTT, […] glycerol.
Enzyme reaction: In a 2 ml screw-cap centrifuge tube were added 50 ul protease (final concentration 0.25 nM) and 0.1 ml inhibitory compound (final concentration […]). After 15 min preincubation at room temperature, the reaction was started with the addition of 0.05 ml substrate (final concentration 5 uM). Incubation was carried out at 30 C. for 1 hr. The reaction was stopped with 1 ml 0.1M ammonium hydroxide.
HPLC measurement of product formation: The product (aminobenzoyl-Ala-Thr-His-Gln-Val-Tyr) was separated from substrate on a Pharmacia MonoQ anion exchange column. The injection volume was 0.2 ml. The mobile phases were: A (20 mM trisHCl, pH 9.0, 0.02% sodium Azide, 10% acetonitrile), B (20 mM tris HCl, pH 9.0, 0.02% sodium azide, 0.5M ammonium formate, 10% acetonitrile). The mobile phases were pumped at 1 ml/min, with a gradient from 0 to 30% B in 5 min, 100% B for 4 min to wash the column, and a re-equilibration for 4 min. The retention time of the product was 3.6 min. Detection with a Shimadzu model RF535 fluorescence monitor was at 330 nm (excitation) and 430 (emission).
With `O=C1N(Cc2coc(CO)c2)C(Cc2ccccc2)C(O)C(O)C(Cc2ccccc2)N1Cc1coc(CO)c1` (centres unmarked) [Example 15FP] the Ki was < 10 nM. In the case of `O=C1NC(Cc2ccccc2)C(O)C(O)C(Cc2ccccc2)N1Cc1ccco1` (centres unmarked) [Example 15FV], the Ki is reported as < 10 nM.

Same assay, conditions: Table 2e; read-out: K4 HPLC
For `O=C1N(CC2CC2)C(Cc2ccc3ccccc3c2)C(O)C(O)C(Cc2ccc3ccccc3c2)N1CC1CC1` (centres unmarked) [16L], the Ki was < 10 nM. With `O=C1N(CC2CC2)C(Cc2cccs2)C(O)C(O)C(Cc2cccs2)N1CC1CC1` (centres unmarked) [16O] the Ki was < 10 nM. For `NC(=NO)c1cccc(CN2C(=O)N(Cc3cccc(C(N)=NO)c3)C(Cc3cccs3)C(O)C(O)C2Cc2cccs2)c1` (centres unmarked) [16P], the Ki was < 10 nM. In the case of `CSCCC1C(O)C(O)C(CCSC)N(Cc2ccccc2)C(=O)N1Cc1ccccc1` (centres unmarked) [Example 16AA], the Ki is reported as > 1000 nM. For `CSCCC1C(O)C(O)C(CCSC)N(CC2CC2)C(=O)N1CC1CC1` (centres unmarked) [Example 16AB], the Ki was > 1000 nM. `CCCCC1C(O)C(O)C(CCCC)N(Cc2ccccc2)C(=O)N1Cc1ccccc1` (centres unmarked) [Example 16AG] was tested, and the Ki was > 1000 nM. `C=CCCC1C(O)C(O)C(CCC=C)N(Cc2ccccc2)C(=O)N1Cc1ccccc1` (centres unmarked) [Example 16AK] was tested, and the Ki was > 1000 nM. For `C=CCCCC1C(O)C(O)C(CCCC=C)N(Cc2ccccc2)C(=O)N1Cc1ccccc1` (centres unmarked) [Example 16AL], the Ki was > 1000 nM. `CCC(CC)CC1C(O)C(O)C(CC(CC)CC)N(Cc2ccccc2)C(=O)N1Cc1ccccc1` (centres unmarked) [Example 16AM] gave a Ki of 10 to 1000 nM. In the case of `O=C1N(Cc2ccccc2)C(CCCCCO)C(O)C(O)C(CCCCCO)N1Cc1ccccc1` (centres unmarked) [Example 16AN], the Ki is reported as > 1000 nM. In the case of `O=C1N(Cc2ccccc2)C(CCCCO)C(O)C(O)C(CCCCO)N1Cc1ccccc1` (centres unmarked) [Example 16AO], the Ki is reported as > 1000 nM. `C=CCN1C(=O)N(CC=C)C(CCCCCCCC)C(O)C(O)C1CCCCCCCC` (centres unmarked) [Example 16AP] was tested, and the Ki was 10 to 1000 nM. With `C=CCN1C(=O)N(CC=C)C(CCCCCC)C(O)C(O)C1CCCCCC` (centres unmarked) [Example 16AQ] the Ki was > 1000 nM. In the case of `C=CCCCC1C(O)C(O)C(CCCC=C)N(CC=C)C(=O)N1CC=C` (centres unmarked) [Example 16AR], the Ki is reported as > 1000 nM. With `C=CCCC1C(O)C(O)C(CCC=C)N(CC=C)C(=O)N1CC=C` (centres unmarked) [Example 16AS] the Ki was > 1000 nM. `CCCCC1C(O)C(O)C(CCCC)N(Cc2ccc(CO)cc2)C(=O)N1Cc1ccc(CO)cc1` (centres unmarked) [Example 16AT] was tested, and the Ki was 10 to 1000 nM.

Same assay, conditions: Table 2i; read-out: HPLC Ki
With `COc1ccc(CC2C(O)C(O)C(Cc3ccc(OC)cc3)N(CC3CC3)C(=O)N2CC2CC2)cc1` (centres unmarked) [20AF] the Ki was < 10 nM. `COc1ccc(CC2C(O)C(O)C(Cc3ccc(OC)cc3)N(Cc3ccccc3)C(=O)N2Cc2ccccc2)cc1` (centres unmarked) [20AG] was tested, and the Ki was < 10 nM. With `COc1ccc(CC2C(O)C(O)C(Cc3ccc(OC)cc3)N(Cc3ccc4ccccc4c3)C(=O)N2Cc2ccc3ccccc3c2)cc1` (centres unmarked) [20AH] the Ki was < 10 nM. In the case of `COC(=O)c1ccc(CN2C(=O)N(Cc3ccc(C(=O)OC)cc3)C(Cc3ccc(OC)cc3)C(O)C(O)C2Cc2ccc(OC)cc2)cc1` (centres unmarked) [20AI], the Ki is reported as > 1000 nM. `COc1ccc(CC2C(O)C(O)C(Cc3ccc(OC)cc3)N(Cc3ccc(CO)cc3)C(=O)N2Cc2ccc(CO)cc2)cc1` (centres unmarked) [20AJ] was tested, and the Ki was < 10 nM. With `O=C1N(Cc2ccccc2)[C@H](Cc2ccc(O)cc2)[C@H](O)[C@@H](O)[C@@H](Cc2ccc(O)cc2)N1Cc1ccccc1` [20AK] the Ki was < 10 nM. For `C=CCN1C(=O)N(CC=C)C(Cc2ccc(OC)cc2)C(O)C(O)C1Cc1ccc(OC)cc1` (centres unmarked) [20AL], the Ki was < 10 nM. For `O=C1N(Cc2ccccc2)C(Cc2ccc(OCCO)cc2)C(O)C(O)C(Cc2ccc(OCCO)cc2)N1Cc1ccccc1` (centres unmarked) [20AM], the Ki was < 10 nM. In the case of `CCOC(=O)COc1cccc(CC2C(O)C(O)C(Cc3cccc(OCC(=O)OCC)c3)N(CC3CC3)C(=O)N2CC2CC2)c1` (centres unmarked) [20AV], the Ki is reported as 10 to 1000 nM. With `O=C1N(Cc2ccc(CO)cc2)C(Cc2ccc(F)cc2)C(O)C(O)C(Cc2ccc(F)cc2)N1Cc1ccc(CO)cc1` (centres unmarked) [20I] the Ki was < 10 nM. In the case of `CC(=O)c1ccc(CN2C(=O)N(Cc3ccc(C(C)=O)cc3)C(Cc3ccccc3)C(O)C(O)C2Cc2ccccc2)cc1` (centres unmarked) [20J], the Ki is reported as 10 to 1000 nM.

Same assay, conditions: Table 2m; read-out: HPLC Ki
Compound `O=C(NCCN1CCOCC1)c1cccc(CN2C(Cc3ccccc3)C(O)C(O)C(Cc3ccccc3)N(Cc3cccc(C(=O)NCCN4CCOCC4)c3)S2(=O)=O)c1` (centres unmarked) [23Z] has a Ki of 10 to 1000 nM.

Same assay, conditions: Table 2d; HIV protease inhibition, HPLC method; read-out: HPLC K1
In the case of `O=C1N(Cc2cccc(-c3cc[nH]n3)c2)C(Cc2ccccc2)C(O)C(O)C(Cc2ccccc2)N1Cc1cccc(-c2cc[nH]n2)c1` (centres unmarked) [Example 15XO], the Ki is reported as < 10 nM.

Same assay, conditions: Table 2d; class symbols; read-out: HPLC K1
In the case of `O=C1N(CC2CC2CO)C(Cc2ccccc2)C(O)C(O)C(Cc2ccccc2)N1CC1CC1CO` (centres unmarked) [Example 12L], the Ki is reported as > 1000 nM. With `O=C1NC(Cc2ccccc2)C(O)C(O)C(Cc2ccccc2)N1CC1CC1CCO` (centres unmarked) [Example 12Z] the Ki was 10 to 1000 nM. Compound `O=C1NC(Cc2ccccc2)C(O)C(O)C(Cc2ccccc2)N1CC1CC1CCCO` (centres unmarked) [Example 13A] has a Ki of 10 to 1000 nM. Work on `O=C1N(CC2CC2(c2ccccc2)c2ccccc2)C(Cc2ccccc2)C(O)C(O)C(Cc2ccccc2)N1CC1CC1(c1ccccc1)c1ccccc1` (centres unmarked) [Example 14F] yielded a Ki of 10 to 1000 nM. For `O=C1N(CC2CC2c2ccccc2)C(Cc2ccccc2)C(O)C(O)C(Cc2ccccc2)N1CC1CC1c1ccccc1` (centres unmarked) [Example 14H], the Ki was 10 to 1000 nM. With `O=C1NC(Cc2ccccc2)C(O)C(O)C(Cc2ccccc2)N1CC1CC1c1ccccc1` (centres unmarked) [Example 14I] the Ki was 10 to 1000 nM. Compound `Cc1cncc(OCc2ccccc2)c1CN1C(=O)N(Cc2c(C)cncc2OCc2ccccc2)C(Cc2ccccc2)C(O)C(O)C1Cc1ccccc1` (centres unmarked) [Example 14J] has a Ki of 10 to 1000 nM.

Same assay, conditions: read-out: HPLC K1; HIV protease inhibition, HPLC method; Table 2d
In the case of `C=CC(=C)CN1C(=O)N(CC(=C)C=C)C(Cc2ccccc2)C(O)C(O)C1Cc1ccccc1` (centres unmarked) [Example 15FX], the Ki is reported as 10 to 1000 nM.

Same assay, conditions: read-out: HPLC K1; Table 2d; class symbols
With `O=C1N(Cc2ccccc2)C(Cc2ccccc2)C(O)C(O)C(Cc2ccccc2)N1Cc1ccccc1` (centres unmarked) [Example 13Q] the Ki was > 1000 nM. For `O=C1N(Cc2ccccc2)C(Cc2ccccc2)C(O)C(O)C(Cc2ccccc2)N1Cc1ccccc1` (centres unmarked) [Example 13Y], the Ki was > 1000 nM. With `CCCCCC#CCN1C(=O)N(CC#CCCCCC)C(Cc2ccccc2)C(O)C(O)C1Cc1ccccc1` (centres unmarked) [Example 14E] the Ki was 10 to 1000 nM. `O=C1N(c2ccccc2)C(Cc2ccccc2)C(O)C(O)C(Cc2ccccc2)N1c1ccccc1` (centres unmarked) [Example 14G] gave a Ki of 10 to 1000 nM.

Same assay, conditions: read-out: HPLC Ki; Table 2i
With `O=C1N(CC2CC2)C(Cc2ccc(F)cc2)C(O)C(O)C(Cc2ccc(F)cc2)N1CC1CC1` (centres unmarked) [20H] the Ki was < 10 nM.

Same assay, conditions: read-out: HPLC Ki; Table 1d, lower part
In the case of `COCCOCO[C@@H]1C(=O)[C@@H](Cc2ccccc2)N(CC2CC2)C(=O)N(CC2CC2)[C@@H]1Cc1ccccc1` [Example 7AA], the Ki is reported as > 1000 nM. `O=C1N(CC2CC2)C(Cc2ccccc2)C(=NO)C(O)C(Cc2ccccc2)N1CC1CC1` (centres unmarked) [Example 7AB] was tested, and the Ki was > 1000 nM. For `CON=C1C(O)C(Cc2ccccc2)N(CC2CC2)C(=O)N(CC2CC2)C1Cc1ccccc1` (centres unmarked) [Example 7AC], the Ki was 10 to 1000 nM. In the case of `O=C1N(CC2CC2)C(Cc2ccccc2)c2ncoc2C(Cc2ccccc2)N1CC1CC1` (centres unmarked) [Example 7AD], the Ki is reported as 10 to 1000 nM. For `COC1C(O)C(Cc2ccccc2)N(CC2CC2)C(=O)N(CC2CC2)C1Cc1ccccc1` (centres unmarked) [Example 7AE], the Ki was 10 to 1000 nM. In the case of `COC1C(OC)C(Cc2ccccc2)N(CC2CC2)C(=O)N(CC2CC2)C1Cc1ccccc1` (centres unmarked) [Example 7AF], the Ki is reported as > 1000 nM. For `O=C1N(CC2CC2)C(Cc2ccccc2)C(OCc2ccccc2)C(OCc2ccccc2)C(Cc2ccccc2)N1CC1CC1` (centres unmarked) [Example 7AG], the Ki was > 1000 nM. For `O=C1N(CC2CC2)C(Cc2ccccc2)C(O)C(OCc2ccccc2)C(Cc2ccccc2)N1CC1CC1` (centres unmarked) [Example 7AH], the Ki was > 1000 nM. `C=CCOC1C(O)C(Cc2ccccc2)N(CC2CC2)C(=O)N(CC2CC2)C1Cc1ccccc1` (centres unmarked) [Example 7AJ] gave a Ki of 10 to 1000 nM.

Same assay, conditions: read-out: K4 HPLC; Table 2e
With `CC(C)CC1C(O)C(O)C(CC(C)C)N(Cc2ccccc2)C(=O)N1Cc1ccccc1` (centres unmarked) [Example 16AD] the Ki was < 10 nM. With `CCCCN1C(=O)N(CCCC)C(CC(C)C)C(O)C(O)C1CC(C)C` (centres unmarked) [Example 16AE] the Ki was 10 to 1000 nM. In the case of `O=C1N(Cc2ccccc2)C(CCc2ccccc2)C(O)C(O)C(CCc2ccccc2)N1Cc1ccccc1` (centres unmarked) [Example 16A], the Ki is reported as 10 to 1000 nM. `C=CCN1C(=O)N(CC=C)C(CCc2ccccc2)C(O)C(O)C1CCc1ccccc1` (centres unmarked) [Example 16B] was tested, and the Ki was > 1000 nM. Work on `C=CCN1C(=O)N(CC=C)C(C(C)C)C(O)C(O)C1C(C)C` (centres unmarked) [Example 16C] yielded a Ki of 10 to 1000 nM. `CC(C)C1C(O)C(O)C(C(C)C)N(CC2CC2)C(=O)N1CC1CC1` (centres unmarked) [Example 16D] was tested, and the Ki was 10 to 1000 nM. With `C=CCN1C(=O)N(CC=C)C(C)C(O)C(O)C1C` (centres unmarked) [Example 16E] the Ki was > 1000 nM.

Same assay, conditions: read-out: Ki (HPLC); Table 1e, cells marked (HPLC)
`O=C1N(Cc2ccc(CCl)cc2)[C@H](CCc2ccccc2)[C@@H](O)[C@@H](Cc2ccccc2)N1Cc1ccc(CCl)cc1` [Example 8J] showed a Ki of 10 to 1000 nM. In the case of `O=C1N(Cc2ccc(CO)cc2)[C@H](CCc2ccccc2)[C@@H](O)[C@@H](Cc2ccccc2)N1Cc1ccc(CO)cc1` [Example 8M], the Ki is reported as < 10 nM.
